In patent US11459315B2, “Modulators of methyl modifying enzymes, compositions and uses thereof” (Constellation Pharmaceuticals, Inc., priority 2017, dated 2022) one finds IC50 and EC50 data, which are given here for 19 compounds.

Assay [1] has as its target PRC2 containing wt EZH2 (Homo sapiens (Human), UniProt Q15910). The assay can be described thus: EZH2 biochemical assay (IC50), 3H-SAM incorporation into biotinylated H3 peptide. The method, then: EZH2 biochemical assay (IC50): Compound potencies were assessed through incorporation of ^3H-SAM into a biotinylated H3 peptide. Specifically, 30 pM PRC2 containing wt EZH2 (pentameric complex prepared in-house) was pre-incubated with 450 nM SAM, 450 nM ^3H-SAM, 2 μM H3K27me3 activating peptide (H2N-[…](Kme3)[…]-amide) and compounds (as 10 point duplicate dose response titrations in DMSO, final assay 0.8% DMSO (v/v)) for 3-5 h in 50 mM Tris (pH 8.5), 1 mM DTT, 0.07 mM Brij-35, 0.1% BSA, and 0.8% DMSO in a total volume of 12.5 μl. Reaction was initiated with biotinylated H3 substrate peptide (H2N-[…](Kme1)[…]-NTPEGBiot) as a 2 μM stock in 12.5 μl of buffer and allowed to react at room temperature for 18-22 h. Quenching was accomplished by addition of 20 μl of STOP solution (50 mM Tris (pH 8.5), 200 mM EDTA, 2 mM SAH). 35 μl of the quenched solution was transferred to streptavidin coated FlashPlates (PerkinElmer), incubated 1-2 h, washed, and read in a TopCount Reader (PerkinElmer). IC50s were calculated in Genedata Screener using non-linear least square four parameter fits, where the four parameters were IC50, Hill slope, pre-transitional baseline (0% INH), and post-transitional baseline (100% INH).
IC50 values are reported as follows: “A” indicates an IC50 value of less than 0.5 nM; “B” indicates an IC50 value of 0.5 nM to 5 nM; “C” indicates an IC50 value of greater than 5 nM for each enzyme; and “ND” is not determined.

In assay [2] the test system is H3K27me3 mark in HeLa cells (EZH2). Put plainly: H3K27me3 Alpha Hela Assay (AlphaLISA). Format: cell-based. The conditions noted are these: HeLa cells, 72 hrs, read-out: EZH2 Cell H3K27me3 Alpha HeLa (EC50 K27me3). The method, then: H3K27me3 Alpha Hela Assay (AlphaLISA). Ten different doses of each test compound (in a series of 3-fold dilutions) were plated in duplicate 384-well tissue culture treated plates (Catalog #6007680; Perkin Elmer, Waltham, Mass.). Hela cells grown in culture were trypsinized and counted using a Countess® cell counter (Catalog #C10281; Life Technologies, Grand Island, N.Y.). Cell were diluted to 67,000 cells per mL in 10% DMEM (Catalog #10569-010 Life Technologies, Grand Island, N.Y.) and 15 μL (1,000 cells) were plated into each well using the Biotek MicroFlo™ Select Dispenser (BioTek Instruments, Inc. Vermont, USA),) of the 384-well plate. Plates were incubated at 37° C./5% CO2 for 72 hrs. One of the duplicate plates was processed for HeLa assay and the other for viability.
5 μL of Cell-Histone Lysis buffer (1×) (Catalog #AL009F1 Perkin Elmer; Waltham, Mass.) per well was added to the plate processed for AlphaLISA and the plate was incubated at RT for 30 minutes on a plate shaker with low speed (Model #4625-Q Thermo Scientific; Waltham, Mass.). Then, 10 μL per well Histone Extraction buffer (catalog #AL009F2; Perkin Elmer; Waltham, Mass.) was added and the plate further incubated at RT for 20 min on plate shaker with low speed. Next, 10 μL of 5× mix of anti-K27me3 acceptor beads plus Biotinylated anti-Histone H3 (C-ter) Antibody (diluted to 3 nM final) (Catalog #AL118 Perkin Elmer; Waltham, Mass.) was added in each well. Dilution of the acceptor beads and anti-Histone H3 was done in 1× Histone Detection buffer (Catalog #AL009F3 Perkin Elmer; Waltham, Mass.) which was produced by diluting the 10× stock provided. The plate was sealed with an aluminum plate sealer and incubated at 23° C. for 60 min. Next, 10 μL 5× solution of Streptavidin Donor beads were added (Catalog #6760002 Perkin Elmer; Waltham, Mass.) (20 μg/mL final in 1× Histone Detection Buffer), =plate was sealed with Aluminum plate sealer and incubated at 23° C. for 30 min. The plates were then read using an EnVision-Alpha Reader (model #2104 Perkin Elmer; Waltham, Mass.).
Data from both assays was analyzed using Genedata (Basel, Switzerland). Data files were imported to Genedata and assay conditions were specified. A unique Analysis ID was created and the data files analysed to measure dose-dependent inhibition of H3K27me3 mark and cell viability respectively. Readout of DMSO wells were used to normalize the data. Resulting curves were fitted using Smart fit application (Genedata; Basel, Switzerland). The data was checked for quality, validated and integrated in excel format using Stardrop (Optibruim, Cambridge, UK).
EC50 values are reported as follows: “A” indicates an EC50 value of less than 10 nM; “B” indicates an EC50 value of 10 nM to 100 nM; “C” indicates an EC50 value of greater than 100 nM; and “ND” is not determined.
A general note: Alpha assays give light when donor and acceptor beads are brought close together.

[3] abbreviates: EZH2 (IC50), 30 pM PRC2 containing wt EZH2; 3-5 h pre-incubation.
Setting [4] is: 30 pM PRC2 containing wt EZH2; 3-5 h pre-incubation; read-out: EZH2 (IC50).
Where [5] appears, read: read-out: EZH2 (IC50); 30 pM PRC2 containing wt EZH2; 3-5 h pre-incubation.

For orientation: IC50 means the point on the concentration scale where inhibition reaches its midpoint. Broadly, the EC50 is the midpoint of the concentration-response curve.

Each structure is given as a SMILES string. Read-outs that look alike come from different tables or passages of the source.

PRC2 containing wt EZH2, sequence (Q15910 whole entry): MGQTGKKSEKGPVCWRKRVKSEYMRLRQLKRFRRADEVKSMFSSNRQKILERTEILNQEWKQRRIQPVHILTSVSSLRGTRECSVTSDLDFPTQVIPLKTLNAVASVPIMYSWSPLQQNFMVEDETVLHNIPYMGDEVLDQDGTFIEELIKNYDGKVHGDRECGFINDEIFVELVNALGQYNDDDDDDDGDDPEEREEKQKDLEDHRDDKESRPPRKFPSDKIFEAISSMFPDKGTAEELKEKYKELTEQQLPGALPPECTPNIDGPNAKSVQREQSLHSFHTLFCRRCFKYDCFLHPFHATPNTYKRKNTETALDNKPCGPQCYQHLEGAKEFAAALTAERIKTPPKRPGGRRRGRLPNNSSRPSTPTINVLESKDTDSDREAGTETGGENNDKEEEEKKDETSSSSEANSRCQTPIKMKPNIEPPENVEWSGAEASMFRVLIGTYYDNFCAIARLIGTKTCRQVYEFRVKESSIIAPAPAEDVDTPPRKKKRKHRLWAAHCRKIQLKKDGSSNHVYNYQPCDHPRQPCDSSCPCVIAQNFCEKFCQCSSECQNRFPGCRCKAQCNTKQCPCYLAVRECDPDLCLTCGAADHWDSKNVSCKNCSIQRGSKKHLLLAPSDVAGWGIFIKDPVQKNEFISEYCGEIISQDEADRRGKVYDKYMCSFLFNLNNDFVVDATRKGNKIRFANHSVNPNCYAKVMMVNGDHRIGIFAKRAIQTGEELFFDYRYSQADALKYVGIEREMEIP
PRC2 containing wt EZH2, sequence (O75530 whole entry partner): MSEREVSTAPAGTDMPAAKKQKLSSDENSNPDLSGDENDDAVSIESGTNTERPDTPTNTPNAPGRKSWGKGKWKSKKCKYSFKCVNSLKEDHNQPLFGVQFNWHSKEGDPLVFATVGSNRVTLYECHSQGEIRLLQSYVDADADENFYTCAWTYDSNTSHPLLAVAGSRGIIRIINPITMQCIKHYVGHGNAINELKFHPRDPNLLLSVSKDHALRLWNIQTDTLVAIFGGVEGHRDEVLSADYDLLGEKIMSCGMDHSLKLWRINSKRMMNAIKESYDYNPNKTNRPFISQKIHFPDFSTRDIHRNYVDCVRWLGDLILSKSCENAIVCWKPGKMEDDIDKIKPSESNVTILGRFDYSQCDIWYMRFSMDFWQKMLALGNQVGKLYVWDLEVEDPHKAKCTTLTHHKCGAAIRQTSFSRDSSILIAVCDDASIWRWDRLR
PRC2 containing wt EZH2, sequence (Q15022 whole entry partner): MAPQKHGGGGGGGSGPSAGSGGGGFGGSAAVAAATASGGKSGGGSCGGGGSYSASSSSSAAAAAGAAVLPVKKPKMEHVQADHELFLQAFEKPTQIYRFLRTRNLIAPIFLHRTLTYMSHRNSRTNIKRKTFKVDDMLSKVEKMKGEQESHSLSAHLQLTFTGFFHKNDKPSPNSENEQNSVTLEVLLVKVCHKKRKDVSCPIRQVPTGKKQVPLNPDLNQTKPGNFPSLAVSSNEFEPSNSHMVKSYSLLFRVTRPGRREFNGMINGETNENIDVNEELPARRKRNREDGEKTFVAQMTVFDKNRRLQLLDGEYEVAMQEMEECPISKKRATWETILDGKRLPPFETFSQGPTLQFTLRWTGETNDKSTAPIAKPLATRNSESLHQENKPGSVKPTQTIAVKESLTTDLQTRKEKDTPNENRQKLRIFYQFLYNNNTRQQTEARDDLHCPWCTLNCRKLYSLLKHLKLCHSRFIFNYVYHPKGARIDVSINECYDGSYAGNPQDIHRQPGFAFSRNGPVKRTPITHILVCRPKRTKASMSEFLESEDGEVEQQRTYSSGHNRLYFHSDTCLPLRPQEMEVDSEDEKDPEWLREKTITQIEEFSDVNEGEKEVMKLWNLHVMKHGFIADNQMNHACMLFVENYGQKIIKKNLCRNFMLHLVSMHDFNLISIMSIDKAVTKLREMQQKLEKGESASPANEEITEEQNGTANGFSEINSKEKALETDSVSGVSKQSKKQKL
PRC2 containing wt EZH2, sequence (Q09028 whole entry partner): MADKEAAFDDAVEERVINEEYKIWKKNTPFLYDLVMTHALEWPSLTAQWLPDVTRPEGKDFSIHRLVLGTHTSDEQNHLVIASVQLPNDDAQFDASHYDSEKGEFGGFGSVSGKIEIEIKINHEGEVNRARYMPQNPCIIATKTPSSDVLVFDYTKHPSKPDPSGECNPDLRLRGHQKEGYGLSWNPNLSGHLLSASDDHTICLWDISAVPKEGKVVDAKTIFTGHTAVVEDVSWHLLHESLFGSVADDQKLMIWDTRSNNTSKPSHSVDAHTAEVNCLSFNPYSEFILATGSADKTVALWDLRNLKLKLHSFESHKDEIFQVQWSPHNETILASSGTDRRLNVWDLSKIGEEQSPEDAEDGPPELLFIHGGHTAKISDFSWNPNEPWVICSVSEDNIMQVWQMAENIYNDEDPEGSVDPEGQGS
PRC2 containing wt EZH2, sequence (Q6ZN18 whole entry partner): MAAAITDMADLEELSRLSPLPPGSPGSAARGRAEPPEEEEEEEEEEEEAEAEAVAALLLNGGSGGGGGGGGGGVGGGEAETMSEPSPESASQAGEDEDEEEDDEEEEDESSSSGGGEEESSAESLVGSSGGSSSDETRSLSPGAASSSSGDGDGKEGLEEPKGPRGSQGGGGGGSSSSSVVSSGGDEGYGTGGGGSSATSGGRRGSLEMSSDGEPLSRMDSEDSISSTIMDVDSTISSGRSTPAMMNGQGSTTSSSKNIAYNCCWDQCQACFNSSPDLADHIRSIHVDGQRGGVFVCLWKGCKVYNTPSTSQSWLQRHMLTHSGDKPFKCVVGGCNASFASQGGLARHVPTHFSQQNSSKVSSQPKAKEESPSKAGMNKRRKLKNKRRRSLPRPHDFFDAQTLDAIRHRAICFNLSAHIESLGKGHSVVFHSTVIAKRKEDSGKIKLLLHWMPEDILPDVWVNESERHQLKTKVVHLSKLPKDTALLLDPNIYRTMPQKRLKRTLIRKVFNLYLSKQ

Turning to `COC1CN(C2CCC([C@@H](C)n3c(C)c(C(=O)NCc4c(SC)cc(C)[nH]c4=O)c4cncnc43)CC2)C1` (stereo partly drawn) [Example 77, 7-((R)-1-(4-(3-methoxyazetidin-1-yl)cyclohexyl)ethyl)-6-methyl-N-((6-methyl-4-(methylthio)-2-oxo-1,2-dihydropyridin-3-yl)methyl)-7H-pyrrolo[2,3-d]pyrimidine-5-carboxamide], the IC50 in assay [1] (setting [3]) is under 0.0005 µM. For the same compound, in assay [2] (Homo sapiens, HeLa, 72 h), the concentration for a half-maximal effect (EC50) is 0.01 to 0.1 µM.
`CSc1cc(C)[nH]c(=O)c1CNC(=O)c1c(C)n([C@H](C)C2CCC(N3CC(OC4CC4)C3)CC2)c2ncccc12` (single isomer, unassigned) [Example 30]: the 50% inhibitory concentration (IC50) in assay [1] (setting [4]) was under 0.0005 µM. Also, in assay [2] (Homo sapiens, HeLa, 72 h), the 50% effective concentration (EC50) is under 0.01 µM.
For `COCCOC1CCC([C@@H](C)n2c(C)c(C(=O)NCc3c(SC)cc(C)[nH]c3=O)c3ccccc32)CC1` (single isomer, unassigned) [67 (isomer 1)], in assay [1] (setting [5]), the IC50 is under 0.0005 µM. The EC50 in assay [2] (Homo sapiens, HeLa, 72 h) is 0.01 to 0.1 µM.
Regarding `CSc1cc(C)[nH]c(=O)c1CNC(=O)c1c(C)n([C@H](C)C2CCC(N3CC[C@@H](OC(F)F)C3)CC2)c2ncccc12` (stereo partly drawn) [Example 119, 1-((R)-1-(4-((R)-3-(difluoromethoxy)pyrrolidin-1-yl)cyclohexyl)ethyl)-2-methyl-N-((6-methyl-4-(methylthio)-2-oxo-1,2-dihydropyridin-3-yl)methyl)-1H-pyrrolo[2,3-b]pyridine-3-carboxamide], the IC50 in assay [1] (setting [4]) is under 0.0005 µM. For the same compound, in assay [2] (Homo sapiens, HeLa, 72 h), the EC50 is under 0.01 µM.
In turn, `CSc1cc(C)[nH]c(=O)c1CNC(=O)c1c(C)n([C@H](C)C2CCC(OC3COC3)CC2)c2ccccc12` (single isomer, unassigned) [137 (isomer 1)] came in with a half-maximal inhibitory concentration (IC50) in assay [1] (setting [3]) of under 0.0005 µM. Besides, the half-maximal effective concentration (EC50) in assay [2] (Homo sapiens, HeLa, 72 h) is under 0.01 µM.
For the compound `CSc1cc(C)[nH]c(=O)c1CNC(=O)c1c(C)n([C@H](C)C23CC(N(C)C4COC4)(C2)C3)c2ccccc12` [Example 9, (R)-2-methyl-1-(1-(3-(methyl(oxetan-3-yl)amino)bicyclo[1.1.1]pentan-1-yl)ethyl)-N-((6-methyl-4-(methylthio)-2-oxo-1,2-dihydropyridin-3-yl)methyl)-1H-indole-3-carboxamide], the IC50 in assay [1] (setting [4]) is under 0.0005 µM. For the same compound, the EC50 in assay [2] (Homo sapiens, HeLa, 72 h) was under 0.01 µM.
As for `CSc1cc(C)[nH]c(=O)c1CNC(=O)c1c(C)n([C@H](C)c2ccc(N(C)C)cc2)c2ccccc12` [Example 46, (R)-1-(1-(4-(dimethylamino)phenyl)ethyl)-2-methyl-N-((6-methyl-4-(methylthio)-2-oxo-1,2-dihydropyridin-3-yl)methyl)-1H-indole-3-carboxamide], in assay [1] (setting [3]), the IC50 is under 0.0005 µM. Also, in assay [2] (Homo sapiens, HeLa, 72 h), the concentration for a half-maximal effect (EC50) was in the range of 0.01 to 0.1 µM.
For the compound `CSc1cc(C)[nH]c(=O)c1CNC(=O)c1c(C)n([C@H](C)C2CCC(NC3COC3)CC2)c2ccccc12` (single isomer, unassigned) [2 (isomer 2)], the 50% inhibitory concentration (IC50) in assay [1] (setting [4]) was under 0.0005 µM. The EC50 in assay [2] is 0.01 to 0.1 µM.
Take `COC1CN(C2CCC([C@@H](C)n3c(C)c(C(=O)NCc4c(SCF)cc(C)[nH]c4=O)c4ccccc43)CC2)C1` (stereo partly drawn) [Example 93, N-((4-((fluoromethyl)thio)-6-methyl-2-oxo-1,2-dihydropyridin-3-yl)methyl)-1-((R)-1-(4-(3-methoxyazetidin-1-yl)cyclohexyl)ethyl)-2-methyl-1H-indole-3-carboxamide]: the IC50 in assay [1] (setting [4]) was under 0.0005 µM. Further, the EC50 in assay [2] (Homo sapiens, HeLa, 72 h) fell in the range of 0.01 to 0.1 µM.
Take `CSc1cc(C)[nH]c(=O)c1CNC(=O)c1c(C)n([C@H](C)C2CCC(O)CC2)c2ncc(Cl)cc12` (single isomer, unassigned) [53 (isomer 2)]: the IC50 in assay [1] (setting [5]) is under 0.0005 µM. Further, the EC50 in assay [2] was under 0.01 µM.
On to `CSc1cc(C)[nH]c(=O)c1CNC(=O)c1c(C)n([C@H](C)C2CCC(N3CC(F)C3)CC2)c2ncncc12` (stereo partly drawn) [Example 68, 7-((R)-1-(4-(3-fluoroazetidin-1-yl)cyclohexyl)ethyl)-6-methyl-N-((6-methyl-4-(methylthio)-2-oxo-1,2-dihydropyridin-3-yl)methyl)-7H-pyrrolo[2,3-d]pyrimidine-5-carboxamide], for which, in assay [1] (setting [3]), the IC50 is under 0.0005 µM. In addition, the concentration for a half-maximal effect (EC50) in assay [2] (Homo sapiens, HeLa, 72 h) was under 0.01 µM.
Consider `CSc1cc(C)[nH]c(=O)c1CNC(=O)c1c(C)n([C@H](C)C2CCC(NCC(F)(F)F)CC2)c2ncncc12` (stereo partly drawn) [Example 89, 6-methyl-N-((6-methyl-4-(methylthio)-2-oxo-1,2-dihydropyridin-3-yl)methyl)-7-((R)-1-(4-((2,2,2-trifluoroethyl)amino)cyclohexyl)ethyl)-7H-pyrrolo[2,3-d]pyrimidine-5-carboxamide], for which, in assay [1] (setting [4]), the 50% inhibitory concentration (IC50) was under 0.0005 µM. Also, the EC50 in assay [2] (Homo sapiens, HeLa, 72 h) lay within 0.01 to 0.1 µM.
Regarding `CSc1cc(C)[nH]c(=O)c1CNC(=O)c1c(C)n([C@H](C)C2CN(CC(F)(F)F)C2)c2ccccc12` [Example 54, (R)-2-methyl-N-((6-methyl-4-(methylthio)-2-oxo-1,2-dihydropyridin-3-yl)methyl)-1-(1-(1-(2,2,2-trifluoroethyl)azetidin-3-yl)ethyl)-1H-indole-3-carboxamide], the half-maximal inhibitory concentration (IC50) in assay [1] (setting [3]) was in the range of 0.0005 to 0.005 µM. In assay [2] (Homo sapiens, HeLa, 72 h), the EC50 was 0.01 to 0.1 µM.
For the compound `CSc1cc(C)[nH]c(=O)c1CNC(=O)c1c(C)n([C@H](C)C2OCC(N(C)C)CO2)c2ccccc12` (single isomer, unassigned) [7 (isomer 1)], the half-maximal inhibitory concentration (IC50) in assay [1] (setting [4]) lay within 0.0005 to 0.005 µM. Moreover, in assay [2], the EC50 is over 0.1 µM.
Consider `CSc1cc(C)[nH]c(=O)c1CNC(=O)c1c(C)n([C@H](C)C2CCC(N3CC(OC4CC4)C3)CC2)c2c(F)cccc12` (single isomer, unassigned) [113 (isomer 2)], for which the IC50 in assay [1] (setting [4]) was under 0.0005 µM. Besides, in assay [2], the EC50 lay in the range of 0.01 to 0.1 µM.
As for `CSc1cc(C)[nH]c(=O)c1CNC(=O)c1c(C)n([C@H](C)C2CCC(N3CC(S(C)(=O)=O)C3)CC2)c2ccccc12` (single isomer, unassigned) [162 (isomer 2)], the IC50 in assay [1] (setting [4]) was 0.0005 to 0.005 µM. In assay [2], the EC50 was over 0.1 µM.
Regarding `CSc1cc(C)[nH]c(=O)c1CNC(=O)c1c(C)n([C@H](C)C2CCN(C(=O)CN(C)C)CC2)c2ccccc12` [Example 142, (R)-1-(1-(1-(dimethylglycyl)piperidin-4-yl)ethyl)-2-methyl-N-((6-methyl-4-(methylthio)-2-oxo-1,2-dihydropyridin-3-yl)methyl)-1H-indole-3-carboxamide], the half-inhibitory concentration (IC50) in assay [1] (setting [4]) is under 0.0005 µM. The EC50 in assay [2] (Homo sapiens, HeLa, 72 h) is over 0.1 µM.
Taken in the same sequence, the figures for `CSc1cc(C)[nH]c(=O)c1CNC(=O)c1c(C)n([C@H](C)C2CCC(N3CC(OC(F)F)C3)CC2)c2ccccc12` (single isomer, unassigned) [20 (isomer 1)] were under 0.0005 µM and under 0.01 µM.
Take `CSc1cc(C)[nH]c(=O)c1CNC(=O)c1c(C)n([C@H](C)C2OCC(NC3(C)COC3)CO2)c2ccccc12` (single isomer, unassigned) [6 (isomer 2)]: the concentration for half-maximal inhibition (IC50) in assay [1] (setting [4]) is 0.0005 to 0.005 µM. In addition, in assay [2], the EC50 was over 0.1 µM.
